In article PMC7180617, “Biological Evaluation of 3-Benzylidenechromanones and Their Spiropyrazolines-Based Analogues” (Molecules, 2020):

How the values were obtained:
[1] = test system: red blood cells (RBC membrane integrity); assay: Red blood cell lysis assay; format: cell-based; settings: 2% RBC suspension, 37 °C, 1 h
Text: All synthesized compounds with potential biological activity have to be tested for blood compatibility since xenobiotics will react with blood cells upon administration. In this case, biocompatibility refers to the quantification of cellular and plasma components of the blood. The measurement of the integrity of RBC membrane is considered a simple and reliable method for estimating hemocompatibility.
The studies on biological material were approved by the Bioethics Committee of the Medical University of Lodz, Poland (RNN/109/16/KE). The blood samples were obtained from healthy donors at the Blood Donation Centre in Lodz. The procedure for plasma preparation for erythrotoxicity studies was described previously. The influence of synthesized compounds as well as two reference compounds flavanone and chromanone on RBC membrane integrity was performed by lysis assay which was conducted according to our previous protocol. Briefly, 2% RBC suspension in 0.9% NaCl was incubated at 37 °C for one hour with the tested compounds at various concentrations corresponding to their activity towards cancer cell lines or 0.9% NaCl (control). The samples were centrifuged at 3000 rpm for 10 min and the absorbance of the supernatant was measured at 550 nm. The results are presented as percentage of haemolysis where a sample containing 10 μL of 2.0% v/v Triton X-100 was regarded as a positive control contributing to 100% of haemolysis. A sample containing saline solution represented spontaneous haemolysis of RBCs (control). The studies were performed on four biological samples obtained from different blood donors (n = 4). The results are presented as mean ± standard deviation (SD). The coefficient of variability for the method was counted: W = 9.51%, n = 5.

[2] = test system: HL-60 cells; assay: MTT cytotoxicity assay, HL-60; format: cell-based, human; settings: Homo sapiens, HL-60, 48 h, MTT, 46 h + 2 h incubation
Method: (§1) The first stage of the study used the MTT viability test to determine the cytotoxicity of ten compounds, i.e., 3-arylidenechromanone, 3-arylideneflavanone, spirochromanone and spiro- flavanone analogues, against four human cancer cell lines: HL-60, NALM-6, WM-115 and COLO-205.
(§2) Cytotoxicity was tested against human skin melanoma cells (WM-115, ECACC, Salisbury, UK), two human leukemia cell lines, viz. promyelocytic leukemia (HL-60) and lymphoblastic leukemia (NALM-6), and human colon adenocarcinoma cells (COLO-205). The cell lines COLO-205, WM-115 and HL-60 used in this work came from the ATCC American Type Culture Collection (Manassas, VA, USA), whereas the NALM-6 cell line was purchased from the German Collection of Microorganisms and Cell Cultures (Braunschweig, Germany). The leukaemia cells and colon adenocarcinoma were cultured in RPMI 1640 medium (Invitrogen, Grand Island, NY, USA) supplemented with 10% fetal bovine serum (FBS; Invitrogen) and gentamicin (25 µg/mL; KRKA, Novo Mesto, Slovenia). For melanoma WM-115 cells, Dulbecco’s minimal essential medium (DMEM; Invitrogen) was used. All cell lines were cultured at 37 °C in a humidified atmosphere of 5% CO2 in air.
(§3) For all experiments, the studied compounds were dissolved in DMSO (Sigma-Aldrich) and were further diluted in culture medium to obtain <0.1% DMSO concentration. In each experiment, controls with and without 0.1% DMSO were performed. The cytotoxicity of all compounds and of the reference compounds 4-chromanone and 3-benzylideneflavanone was determined by the MTT assay, i.e., 3-(4,5-dimethylthiazol-2-yl)-2,5-diphenyltetrazolium bromide (Sigma, St. Louis, MO, USA), which measures cellular dehydrogenase activity. Exponentially growing cells were seeded a day before the experiment onto a 96-well microplates (Nunc, Roskilde, Denmark) at a density up to 6–8 × 10^3 cells/well (depending on the cell line). Subsequently, various concentrations of the studied compounds freshly prepared in DMSO and diluted with complete culture medium were added. All compounds were tested for their cytotoxicity at a final concentration of 10^−7–10^−3 M. After 46 h of incubation with the studied compounds, the cells were treated with the MTT reagent and incubation was continued for another two hours. MTT – formazan crystals were dissolved in 20% sodium dodecyl sulphate (SDS, Sigma-Aldrich) and 50% DMF (Sigma-Aldrich) at pH 4.7; following this, absorbance was read at 570 nm on a multifunctional Victor ELISA-plate reader (Perkin Elmer, Turku, Finland). The IC50 values, i.e., the concentration of the test compound required to reduce the cell survival fraction to 50% of controls, were calculated from concentration-response curves and used as a measure of the sensitivity of the cells to a given treatment. As a control, cultured cells were grown in the absence of drugs. The data points represent the means of at least five to ten repeats ± standard deviation (S.D.).

[3] = test system: COLO-205 cells; assay: MTT cytotoxicity assay, COLO-205; format: cell-based, human; settings: Homo sapiens, COLO 205, 48 h, 46 h + 2 h incubation
Method: as §1, §2, §3

[4] = test system: NALM-6 cells; assay: MTT cytotoxicity assay, NALM-6; format: cell-based, human; settings: Homo sapiens, NALM-6, 48 h, MTT, 46 h + 2 h incubation
Method: as §1, §2, §3

[5] = test system: WM-115 cells; assay: MTT cytotoxicity assay, WM-115; format: cell-based, human; settings: Homo sapiens, WM-115, 48 h, MTT, 46 h + 2 h incubation
Method: as §1, §2, §3

[6] = Lipophilicity (logP) by RP-TLC; settings: RP-18 F254S TLC plates

chromatographic logP [6]: 4.23
Compound: O=C1/C(=C/c2ccccc2)COc2ccccc21 [Compound 7, (E)-3-benzylidene-chroman-4-one]
effect on RBC hemolysis / erythrocyte membrane integrity (in words) [1]: no significant effects on RBC hemolysis were observed up to 35 µM
IC50 [2]: 34.8 ± 2.87 µM
IC50 [3]: 31 ± 1.4 µM
IC50 [4]: 6.83 ± 0.18 µM
IC50 [5]: 12.8 ± 1.83 µM
